Where a name gives a salt, the structure may show the parent alone.
melting point	SMILES
196 to 199 °C	O=S(=O)(Nc1cccc2ccn(CCN3CCCC3)c12)c1cccc2ccccc12 [Example 6, N-(1-(2-(pyrrolidin-1-yl)ethyl)-1H-indol-7-yl)naphthalene-1-sulfonamide]
46 to 49 °C	O=S(=O)(CCc1cccc2ccccc12)Nc1cccc2ccn(CCN3CCCC3)c12 [Example 8, 2-(naphth-1-yl)-N-(1-(2-(pyrrolidin-1-yl)ethyl)-1H-indol-7-yl)ethansulfonamide]

More lines, now with the values behind:

SMILES	melting point
O=S(=O)(Nc1cccc2ccn(CCN3CCCC3)c12)c1c(Cl)nc2sccn12 (as salt: TFA) [Example 7, 6-chloro-N-(1-(2-(pyrrolidin-1-yl)ethyl)-1H-indol-7-yl)imidazo[2,1-b]thiazole-5-sulfonamide]	92 to 95 °C
Cc1c(S(=O)(=O)Nc2cccc3ccn(CCN(C)C)c23)sc2ccc(Cl)cc12 [Example 2, N-[1-(2-dimethylaminoethyl)-1H-indole-7-yl]-5-chloro-3-methyl-benzo[b]thiophene-2-sulfonamide]	57 to 65 °C
CN(C)CCn1ccc2cccc(NS(=O)(=O)c3ccc(-c4ccccc4)cc3)c21 [Example 3, N-[1-(2-dimethylaminoethyl)-1H-indole-7-yl]-4 phenylbenzenesulfonamide]	137 to 140 °C
CN(C)CCn1ccc2cccc(NS(=O)(=O)c3c(Cl)nc4sccn34)c21 [Example 4, N-[1-(2-dimethylaminoethyl)-1H-indole-7-yl]-6-chloroimidazo[2,1-b]thiazole-5-sulfonamide]	73 to 76 °C

From patent US7414070B2, “Indol-7-YL sulfonamide derivatives, their preparation and their use in pharmaceutical compositions” (Laboratorios del Dr. ESTEVE S.A., priority 2003, dated 2008)
